The results in this text go back to US12617777B2, “GPR84 antagonists and uses thereof” (Liminal BioSciences Limited, priority 2021, dated 2026).

As usually defined, the inhibition is the change of the read-out against control, counted positive when it falls. High values mean strong suppression, low ones little suppression. For orientation: pIC50 means the negative decadic logarithm of the IC50, by convention in mol/L. High values mean a small IC50, low ones a large IC50.

pIC50: −log10 of the molar value. Bounds are passed on as bounds.

The target in this assay is T1, human GPR84 receptor (Homo sapiens, UniProt Q9NQS5).
T1 construct: host or cells: HEK293, transient transfection
T1 sequence (Q9NQS5 whole entry): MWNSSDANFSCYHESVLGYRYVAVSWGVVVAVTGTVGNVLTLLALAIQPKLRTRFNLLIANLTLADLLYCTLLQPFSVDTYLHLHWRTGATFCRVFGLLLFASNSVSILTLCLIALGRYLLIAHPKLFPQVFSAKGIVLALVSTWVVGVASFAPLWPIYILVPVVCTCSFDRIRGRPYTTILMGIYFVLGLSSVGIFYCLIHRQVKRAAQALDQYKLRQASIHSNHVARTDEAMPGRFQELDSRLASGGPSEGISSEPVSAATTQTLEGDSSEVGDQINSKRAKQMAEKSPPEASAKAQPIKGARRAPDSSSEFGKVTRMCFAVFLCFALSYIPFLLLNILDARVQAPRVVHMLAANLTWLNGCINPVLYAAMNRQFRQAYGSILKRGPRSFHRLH
In words: Gαi biosensor BRET assay in HEK293 cells (antagonism of ZQ-16). Type of assay: cell-based. The settings on record: for inhibition at 10 µM: HEK293, single concentration 10 μM (designated F); for pIC50: HEK293 cells, antagonism of 200 nmol/L ZQ-16; for inhibition at 25 µM: HEK293, single concentration 25 μM (designated I); for inhibition at 2 µM: HEK293, single concentration 2 μM (designated A). In outline: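 Antagonist mode: test compound 5 min at 37° C, followed by ZQ-16 agonist (200 nmol/L, 5 min, room temperature), in HEK293 cells transfected with GPR84 plus Rluc8-tagged Gαi2, GFP10-Gγ2 and Gβ1. Readout as GFP10/Rluc8 emission ratio after 5 μmol/L coelenterazine 400A, net of Rluc8-only and vehicle signal.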
For orientation: Bioluminescence resonance energy transfer reports proximity on the nanometre scale.

Take `Cc1cc(N2CCN(C(=O)c3ccccc3)CC2)ccc1-c1cn(CC2CCCCO2)nn1` (centres unmarked) [Compound I-236]: the inhibition at 10 µM was in the range of 50 to 75% and the negative logarithm of the IC50 (pIC50) is 5.52 to 6.00.

In turn, `Cc1cc(N2CCC(C)(C)C2)cnc1-c1cn(CC2CCCCO2)nn1` (centres unmarked) [Compound I-555] returned an inhibition at 10 µM of at most 25%.

Consider `CCc1cc(N2CC(C)(C)C2)cnc1-c1cn(CC2CCCCO2)nn1` (centres unmarked) [Compound I-260], for which the inhibition at 10 µM is 50 to 75%.

`Cc1cc(N2CCN(C(C)c3ccccn3)CC2)ccc1-c1cn(CC2OCC(C)(C)CO2)nn1` (centres unmarked) [Compound I-691] had an inhibition at 10 µM of over 75% and a pIC50 of 6.00 to 6.52.

Turning to `C(#CC1CC1)c1ccc(-c2nnn(CC3COCCO3)n2)cc1` (centres unmarked) [Compound I-3], the inhibition at 25 µM was at most 25%.

Turning to `FC(F)(F)COc1ccc(-c2cn(CC3CCCCO3)nn2)cc1` (centres unmarked) [Compound I-51], the inhibition at 25 µM is at most 25%.

In turn, `Cc1cc(N2CCC(O)CC2)ccc1-c1cn(CC2CCCCO2)nn1` (centres unmarked) [Compound I-449] came in with an inhibition at 10 µM of 25 to 50%.

`COC(c1cn(CC2CCCCO2)nn1)c1cc(C#CC(C)(C)O)ccc1F` (centres unmarked) [Compound I-632] yielded an inhibition at 10 µM of at most 25%.

Molecule `N#CCc1cc(C#CC2CC2)ccc1-c1cn(CC2CCCCO2)nn1` (centres unmarked) [Compound I-217] showed an inhibition at 10 µM of 25 to 50%.

For the molecule `COC(C)(c1cccc(C#CC2CC2)c1)c1cn(CC2CCCCO2)nn1` (centres unmarked) [Compound I-631], the inhibition at 10 µM is over 75%.

Consider `Cc1cc(N2C3CCC2CN(Cc2ccccn2)C3)ccc1-c1cn(CC2CCCCO2)nn1` (centres unmarked) [Compound I-430], for which the inhibition at 10 µM fell in the range of 25 to 50% and the pIC50 is 6.00 to 6.52.

`C(#CC1CC1)c1ccc2c(c1)CCc1nnn(CC3CCCCO3)c1-2` (centres unmarked) [Compound I-305] displayed an inhibition at 10 µM of at most 25%.

With `Cc1cc(C#CCn2cc(-c3ccccc3)nn2)ccc1-c1cn(CC2CCCCO2)nn1` (centres unmarked) [Compound I-432, 1-(3-(3-methyl-4-(1-((tetrahydro-2H-pyran-2-yl)methyl)-1H-1,2,3-triazol-4-yl)phenyl)prop-2-ynyl)-4-phenyl-1H-1,2,3-triazole], the inhibition at 10 µM is over 75% and the pIC50 is 6.00 to 6.52.

As for `Cc1cc(C#CCN2CC(C)(C)C2)cnc1-c1nnnn1CC1OCC(C)(C)CO1` [Compound I-836], the inhibition at 10 µM lay in the range of 50 to 75%.

The molecule `CC(O)(c1cccc(C#CC2CC2)c1)c1cn(CC2CCCCO2)nn1` (centres unmarked) [Compound I-496] yielded an inhibition at 10 µM of 25 to 50%.

The molecule `Cc1cc(C#CC2CC2)ccc1-c1cn(CC2CCCC(C)(C)O2)nn1` (centres unmarked) [Compound I-610] registered an inhibition at 2 µM of at most 25%.

On to `Cc1cc(N2CC3(CN(Cc4ccccc4)C3)C2)ccc1-c1cn(CC2CCCCO2)nn1` (centres unmarked) [Compound I-146], for which the inhibition at 10 µM was 25 to 50%.

`Cc1cc(C#CC2CC2)ccc1-c1cn(CC2CCCCN2)nn1` (centres unmarked) [Compound I-126] registered an inhibition at 10 µM of at most 25%.

Molecule `Cc1ccc(C#CC2CC2)cc1N(C)c1cn(CC2OCC(C)(C)CO2)nn1` [Compound I-761, N-(5-(cyclopropylethynyl)-2-methylphenyl)-1-((5,5-dimethyl-1,3-dioxan-2-yl)methyl)-N-methyl-1H-1,2,3-triazol-4-amine] showed a pIC50 of 6.00 to 6.52.

Molecule `Cc1ccc(-c2ccc(C3COC(=O)N3CC3CCCCO3)c(C)c2)cn1` (centres unmarked) [Compound I-407, 4-(2-methyl-4-(6-methylpyridin-3-yl)phenyl)-3-((tetrahydro-2H-pyran-2-yl)methyl)oxazolidin-2-one] registered an inhibition at 10 µM of at most 25%.

The molecule `CC(C)OCC#Cc1cnc(-c2cn(CC3OCC(C)(C)CO3)nn2)c(OC(C)C)c1` [Compound I-846] yielded an inhibition at 10 µM of at most 25%.

`COC(=O)N1CCCCC1Cn1cc(-c2ccc(C#CC3CC3)cc2C)nn1` (centres unmarked) [Compound I-190] had an inhibition at 10 µM of at most 25%.

`Cc1cc(C#CC2CC2)cnc1-c1cn(CC2CCCO2)nn1` (centres unmarked) [Compound I-204] had an inhibition at 10 µM of 25 to 50%.

Molecule `CN(C)c1cc(N2CC(C)(C(=O)O)C2)ccc1-c1cn(CC2OCC(C)(C)CO2)nn1` [Compound I-696] displayed an inhibition at 10 µM of 25 to 50%.

For the molecule `CC(C)Oc1cc(C#CCN2CC(C)(C)C2)cnc1-c1cn(C[C@H]2CCCCO2)nn1` [Compound I-498], the inhibition at 2 µM lay within 50 to 75% and the pIC50 is 6.00 to 6.52.

`CC1(C)CN(CC#Cc2cnc(-c3cn(CC4OCC5(CCC5)O4)nn3)c(OC3CC3)c2)C1` (centres unmarked) [Compound I-764] had a pIC50 of 6.00 to 6.52.

Regarding `COCC#Cc1cnc(-c2cn(CC3OCC(C)(C)CO3)nn2)c(OC(C)C)c1` [Compound I-837], the inhibition at 10 µM is at most 25%.

As for `Cc1noc(COc2ccc(-c3cn(CC4CCCCO4)nn3)c(C)c2)n1` (centres unmarked) [Compound I-469], the inhibition at 10 µM is at most 25%.

As to `Cc1cc(C#CCN2CCCN(C)CC2)ccc1-c1cn(CC2CCCCO2)nn1` (centres unmarked) [Compound I-159], the inhibition at 10 µM was at most 25%.

Molecule `Cc1cc(N2CC(C)(CO)C2)cnc1-c1cn(CCc2ncccn2)nn1` [Compound I-695] yielded an inhibition at 10 µM of at most 25%.

Turning to `Cc1cc(N2CC(F)(F)C2)ccc1-c1cn(CC2CCCCO2)nn1` (centres unmarked) [Compound I-158], the inhibition at 10 µM is at most 25%.

On to `Cc1cc(N2CC(C)(C)C2)cnc1-c1cn(CC2CCCCO2)cn1` (centres unmarked) [Compound I-609], for which the inhibition at 10 µM is 50 to 75% and the pIC50 is under 5.52.

Consider `Cc1cc(C#CC2CC2)ccc1-c1cn(CC2CCCC(=O)N2)nn1` (centres unmarked) [Compound I-516], for which the inhibition at 10 µM is at most 25%.

As for `Cc1cc(N2CCN(Cc3ncco3)CC2)ccc1-c1cn(CC2CCCCO2)nn1` (centres unmarked) [Compound I-579], the inhibition at 10 µM was over 75%.

`Cc1cc(N2CCC3(CC2)CN(C)C3)ccc1-c1cn(CC2CCCCO2)nn1` (centres unmarked) [Compound I-172]: the inhibition at 10 µM was at most 25%.

Take `COC(c1cn(CC2CCCCO2)nn1)c1cc(N2CC(C)(C)C2)ccc1C` (centres unmarked) [Compound I-593]: the inhibition at 10 µM is at most 25%.

As for `CCc1cc(C#CC2CC2)cnc1-c1cn(CC2OCC(C)(C)O2)nn1` (centres unmarked) [Compound I-602], the inhibition at 10 µM was at most 25%.

In turn, `CN(c1cn(CC2OCC(C)(C)CO2)nn1)c1cc(C#N)ccc1Cl` [Compound I-803] gave an inhibition at 10 µM of over 75%.

Take `Cc1cc(N2CCN(Cc3nccn3C)CC2)ccc1-c1cn(CC2CCCCO2)nn1` (centres unmarked) [Compound I-580]: the inhibition at 10 µM was 25 to 50%.

`CC1(C)COC(Cn2cc(-c3ncc(C#CCN4CC(C)(C)C4)cc3OC3CC3)nn2)OC1` [Compound I-709] showed an inhibition at 2 µM of over 75% and a pIC50 of at least 6.52.

The molecule `Cc1cc(C2CC2)cnc1-c1cn(CC2OCC(C)(C)CO2)nn1` [Compound I-871] had an inhibition at 10 µM of 25 to 50%.

Regarding `CC1(C)COC(Cn2cc(-c3ncc(C#CCN4CC(C)(CO)C4)cc3OC3CC3)nn2)OC1` [Compound I-799], the inhibition at 10 µM is over 75% and the pIC50 is at least 6.52.

On to `COC1CCN(c2ccc(-c3cn(CC4CCCCO4)nn3)c(C)c2)CC1` (centres unmarked) [Compound I-437], for which the inhibition at 10 µM fell in the range of 25 to 50%.

In turn, `C(#CC1CC1)c1cccc(-c2nnn(CC3CCCCO3)n2)c1` (centres unmarked) [Compound I-4] showed an inhibition at 25 µM of 25 to 50% and a pIC50 of at least 6.52.

Turning to `Cc1cc(C#CC2CC2)cnc1-c1cn(CC2OCC(F)(F)CO2)nn1` [Compound I-713], the inhibition at 10 µM is 50 to 75% and the pIC50 is 6.00 to 6.52.

On to `CC(C)Oc1cc(C#CC2CC2)cnc1-c1cn(CC2OCC3(CCC3)O2)nn1` (centres unmarked) [Compound I-797], for which the inhibition at 10 µM is over 75% and the pIC50 was at least 6.52.

Consider `C(#CC1CC1)c1ccc(-c2cn(CCOCC3CCCCO3)nn2)cc1` (centres unmarked) [Compound I-83], for which the inhibition at 25 µM lay in the range of 25 to 50%.

Take `Cc1cc(C#CC2CC2)ccc1-c1cn(CC2CCC(=O)N2)nn1` (centres unmarked) [Compound I-542]: the inhibition at 2 µM is at most 25%.

`Cc1cc(C#CC2CC2)ccc1-c1cn(CC2CC(F)(F)CCO2)nn1` (centres unmarked) [Compound I-497] displayed an inhibition at 10 µM of 25 to 50%.

In turn, `CC(C)Oc1cc(C#CCNc2ccccc2)cnc1-c1cn(CC2CC(C)(C)CO2)nn1` (centres unmarked) [Compound I-526] had an inhibition at 10 µM of 50 to 75% and a pIC50 of at least 6.52.

Consider `COC(c1cn(CC2CCCCO2)nn1)c1cc(C#CC2CC2)c(F)cc1C` (centres unmarked) [Compound I-688], for which the inhibition at 10 µM was over 75% and the pIC50 was 6.00 to 6.52.

As for `Cc1ccc(C#CC2CC2)cc1-c1noc(CC2CCCCO2)n1` (centres unmarked) [Compound I-625], the inhibition at 10 µM is 50 to 75%.

`Cc1ccc(C#N)cc1N(C)c1cn(CC2OCC(C)(C)CO2)nn1` [Compound I-811] gave an inhibition at 10 µM of at most 25%.

`CC1(C)COC(Cn2cncc2-c2ncc(C#CC3CC3)cc2OC2CC2)OC1` [Compound I-832] showed an inhibition at 10 µM of at most 25%.

In turn, `Cc1cc(C#CC2CC2)ccc1-c1cn(CC(C)Oc2ccccc2)nn1` (centres unmarked) [Compound I-72] returned an inhibition at 25 µM of at most 25%.

`CCc1ccc(C#CC2CC2)cc1Cc1cn(CC2CCCCO2)nn1` (centres unmarked) [Compound I-475] displayed an inhibition at 2 µM of 25 to 50%.

Molecule `Cc1cc(C#CC2CC2)ccc1-c1cn(CC2COc3ccccc3O2)nn1` (centres unmarked) [Compound I-101] came in with an inhibition at 10 µM of 25 to 50%.

Take `Cc1cc(C#CC2CC2)cnc1-c1cn(CC2OCC(C)(C)O2)nn1` (centres unmarked) [Compound I-601]: the inhibition at 10 µM was at most 25%.

Molecule `Cc1cc(N2CCN(Cc3ncccn3)CC2)ccc1-c1cn(CC2CCCCO2)nn1` (centres unmarked) [Compound I-547] returned an inhibition at 10 µM of 25 to 50%.

`Cc1cc(N2CCC(Cc3ccccn3)CC2)cnc1-c1cn(CC2CCCCO2)nn1` (centres unmarked) [Compound I-503]: the inhibition at 10 µM was over 75%.

As for `Cc1cc(C#CC2CC2)ccc1-c1nnn(C[C@H]2CCCCO2)c1C` [Compound I-45], the inhibition at 12.5 µM (HEK293, single concentration 12.5 μM (designated G)) lay in the range of 25 to 50%.

On to `COCC1CN(c2ccc(-c3cn(CC4OCC(C)(C)CO4)nn3)c(N(C)C)c2)C1` [Compound I-755], for which the inhibition at 10 µM is over 75%.

`Cc1cc(N2CC(C)(C)C2)ccc1-c1cn(CC2OCC(C)(C)CO2)nn1` [Compound I-665] gave an inhibition at 10 µM of over 75% and a pIC50 of at least 6.52.
